The results in this text go back to US20140065632A1, “MARKER GENE FOR DETECTION OF TUMOR PROMOTER, AND METHOD FOR DETECTION OF TUMOR PROMOTER” (priority 2007, published 2014).

Like-named read-outs stand apart in the source and are kept apart here.

The subject of one data set is Orm1. Kind of data set: Quantitative RT-PCR of Orm1 gene expression in the BALB/c 3T3 cell transformation assay. It counts as cell-based, mouse.
The next data set relates to BALB/c 3T3 cells. Set-up: focus formation ability (intensity of the tumor-promoting activity): key to the marks not given beside the values.
[1] abbreviates: Example 3, MCA-initiated BALB/c 3T3 cells, RNA 48 hours after addition of test substance, normalized by β-actin.

For the compound `CC(C)[C@@H]1CC[C@@H](C)C[C@H]1O` (racemic) [dl-menthol, DL-menthol], the “Expression level of Orm1 (rates relative to the negative control)” value in the data set with Orm1 (setting [1]) is 0.9. In addition, in the data set on BALB/c 3T3 cells, the “Focus formation in the BALB/c 3T3 cell transformation assay” value is “−” and the “ability to form foci in the BALB/c 3T3 cell transformation assay” value is on record as “unable to form foci”.
As to `O=[N+]([O-])c1cccc2ccccc12` [1-nitronaphthalene], in the data set on BALB/c 3T3 cells, the “Focus formation in the BALB/c 3T3 cell transformation assay” value was “−” and the “ability to form foci in the BALB/c 3T3 cell transformation assay” value was “unable to form foci”.
`c1ccc2cc3c(ccc4ccccc43)cc2c1` [Benz[a]anthracen, benz[a]anthracene]: in the data set on BALB/c 3T3 cells, the “Focus formation in the BALB/c 3T3 cell transformation assay” value is given as “−” and the “ability to form foci in the BALB/c 3T3 cell transformation assay” value is on record as “unable to form foci”.
With `c1ccc2c(c1)ccc1c3ccccc3ccc21` [Chrysene, chrysene], in the data set with BALB/c 3T3 cells, the “Focus formation in the BALB/c 3T3 cell transformation assay” value is on record as “−” and the “ability to form foci in the BALB/c 3T3 cell transformation assay” value is recorded as “unable to form foci”. Also, in the data set on Bhas cells, the “ability to form foci in the Bhas cellular transformation assay” value is given as “able to form foci”.
In the case of `OC[C@@H](O)[C@@H](O)[C@H](O)[C@H](O)CO` [D-mannitol], in the data set with BALB/c 3T3 cells, the “Focus formation in the BALB/c 3T3 cell transformation assay” value is reported as “−” and the “ability to form foci in the BALB/c 3T3 cell transformation assay” value was “unable to form foci”.
Consider `C[C@H](CCC(=O)O)[C@H]1CC[C@H]2[C@@H]3CC[C@@H]4C[C@H](O)CC[C@]4(C)[C@H]3CC[C@]12C` [Lithocholic acid, lithocholic acid], for which, in the data set on BALB/c 3T3 cells, the “Focus formation in the BALB/c 3T3 cell transformation assay” value is “+” and the “ability to form foci in the BALB/c 3T3 cell transformation assay” value is listed as “able to form foci”. The “ability to form foci in the Bhas cellular transformation assay” value in the data set on Bhas cells is reported as “able to form foci”.
On to `C=C(C)[C@@]12O[C@@]3(c4ccccc4)O[C@@H]1[C@@H]1[C@@H]4O[C@]4(CO)[C@@H](O)[C@]4(O)C(=O)C(C)=C[C@H]4[C@@]1(O3)[C@H](C)[C@H]2OC(=O)/C=C/C=C/c1ccccc1` [Mezerein, mezerein], for which the “Expression level of Orm1 (rates relative to the negative control)” value in the data set with Orm1 was 2.6. In the data set with BALB/c 3T3 cells, the “Focus formation in the BALB/c 3T3 cell transformation assay” value is “+”, the “ability to form foci in the BALB/c 3T3 cell transformation assay” value is listed as “able to form foci” and the “focus formation ability (intensity of the tumor-promoting activity)” value (“focus formation ability” below) is “+++”. In addition, the “ability to form foci in the Bhas cellular transformation assay” value in the data set on Bhas cells is given as “able to form foci”.
As for `C=C1[C@@H](O)[C@@H]2O[C@]3(CC[C@H](/C=C/[C@@H](C)[C@@H]4CC(C)=C[C@@]5(O[C@H](C[C@@](C)(O)C(=O)O)CC[C@H]5O)O4)O3)CC[C@H]2O[C@@H]1[C@@H](O)C[C@H](C)[C@H]1O[C@@]2(CCCCO2)CC[C@H]1C` [Okadaic acid, okadaic acid], in the data set with BALB/c 3T3 cells, the “Focus formation in the BALB/c 3T3 cell transformation assay” value is given as “+”, the “ability to form foci in the BALB/c 3T3 cell transformation assay” value was “able to form foci” and the “focus formation ability” value is recorded as “+++”.
As for `c1cc2cccc3c4cccc5cccc(c(c1)c23)c54` [Perylene, perylene], in the data set with BALB/c 3T3 cells, the “Focus formation in the BALB/c 3T3 cell transformation assay” value is listed as “−” and the “ability to form foci in the BALB/c 3T3 cell transformation assay” value is recorded as “unable to form foci”. In addition, in the data set on Bhas cells, the “ability to form foci in the Bhas cellular transformation assay” value is “able to form foci”.
On to `CCC1(c2ccccc2)C(=O)NC(=O)NC1=O` [Phenobarbital sodium, phenobarbital sodium], for which, in the data set with BALB/c 3T3 cells, the “Focus formation in the BALB/c 3T3 cell transformation assay” value is recorded as “+”, the “ability to form foci in the BALB/c 3T3 cell transformation assay” value is “able to form foci” and the “focus formation ability” value is recorded as “++”.
For `O=C1NS(=O)(=O)c2ccccc21.[Na]` [Saccharin sodium, saccharin sodium], in that order: “+”, “able to form foci” and “++”.
With `O=[As]O` [Sodium arsenite, sodium arsenite], in the data set on BALB/c 3T3 cells, the “Focus formation in the BALB/c 3T3 cell transformation assay” value is on record as “+”, the “ability to form foci in the BALB/c 3T3 cell transformation assay” value is “able to form foci” and the “focus formation ability” value is recorded as “++”.
Turning to `O=C1O[C@H]([C@@H](O)CO)C([O-])=C1O.[Na+]` [Sodium ascorbate, sodium ascorbate], in the data set with BALB/c 3T3 cells, the “Focus formation in the BALB/c 3T3 cell transformation assay” value is given as “−” and the “ability to form foci in the BALB/c 3T3 cell transformation assay” value is given as “unable to form foci”.
On to `[Na+].[Na+].[Na+].[O]=[V]([O-])([O-])[O-]` [Sodium orthovanadate, sodium orthovanadate], for which, in the data set on Orm1, the “Expression level of Orm1 (rates relative to the negative control)” value came out at 1.5. Also, in the data set on BALB/c 3T3 cells, the “Focus formation in the BALB/c 3T3 cell transformation assay” value was “+”, the “ability to form foci in the BALB/c 3T3 cell transformation assay” value is reported as “able to form foci” and the “focus formation ability” value is reported as “+++”.
Take `CC(C)(C)c1cc(O)ccc1O` [TBHQ, tert-butylhydroquinone]: in the data set with BALB/c 3T3 cells, the “Focus formation in the BALB/c 3T3 cell transformation assay” value is “−” and the “ability to form foci in the BALB/c 3T3 cell transformation assay” value is “unable to form foci”. Besides, the “ability to form foci in the Bhas cellular transformation assay” value with Bhas cells is “able to form foci”.
Turning to `CCCCCCCCCCCCCC(=O)O[C@@H]1[C@@H](C)[C@@]2(O)[C@@H](C=C(CO)C[C@]3(O)C(=O)C(C)=C[C@@H]23)[C@@H]2C(C)(C)[C@]12OC(C)=O` [TPA, phorbol 12-myristate 13-acetate], in the data set on Orm1, the “Expression level of Orm1 (rates relative to the negative control)” value came out at 2.3. For the same compound, in the data set on BALB/c 3T3 cells, the “Focus formation in the BALB/c 3T3 cell transformation assay” value is recorded as “+”, the “ability to form foci in the BALB/c 3T3 cell transformation assay” value is “able to form foci”, the “focus formation ability” value is on record as “+++” and the “focus formation in the BALB/c 3T3 cell transformation assay” value is on record as “Significant focus formation was observed”. Also, the “ability to form foci in the Bhas cellular transformation assay” value in the data set on Bhas cells is given as “able to form foci”.
Turning to `[Cl-].[Cl-].[Zn+2]` [Zinc chloride, zinc chloride], in the data set with Orm1, the “Expression level of Orm1 (rates relative to the negative control)” value was determined as 3.4. In the data set with BALB/c 3T3 cells, the “Focus formation in the BALB/c 3T3 cell transformation assay” value is recorded as “+”, the “ability to form foci in the BALB/c 3T3 cell transformation assay” value is listed as “able to form foci”, the “focus formation ability” value is reported as “+++” and the “focus formation in the BALB/c 3T3 cell transformation assay” value is given as “Significant focus formation was observed”. In addition, the “ability to form foci in the Bhas cellular transformation assay” value in the data set with Bhas cells is reported as “able to form foci”.
With `COc1ccc(O)c(C(C)(C)C)c1` [butylhydroxyanisol], the “focus formation ability” value in the data set on BALB/c 3T3 cells is recorded as “++”.
Regarding insulin, the “Expression level of Orm1 (rates relative to the negative control)” value with Orm1 (setting [1]) amounted to 2.0. In the data set with BALB/c 3T3 cells, the “Focus formation in the BALB/c 3T3 cell transformation assay” value was “+”, the “ability to form foci in the BALB/c 3T3 cell transformation assay” value is reported as “able to form foci” and the “focus formation ability” value is given as “++”. Further, the “ability to form foci in the Bhas cellular transformation assay” value in the data set with Bhas cells was “able to form foci”.
